Source: ChEMBL document CHEMBL5505985 (Eur J Med Chem, 2024)
The source made the active and inactive calls. No cut-off for these calls is given here.

Tests used:
[1] = tested on: RAW264.7; test: Antiinflammatory activity in LPS-induced mouse RAW264.7 cells assessed as inhibition of NO secretion preincubated for 1 hr followed by LPS stimulation and measured after 24 hrs by Griess assay; assay type: functional, cell-based; settings: dose 2-30 µM, time 25.0 hrs
[2] = tested on: RAW264.7; test: Antiinflammatory activity in LPS-induced mouse RAW264.7 cells assessed as inhibition of ROS secretion preincubated for 1 hr followed by LPS stimulation and measured after 24 hrs by fluorescence based analysis; assay type: functional, cell-based; settings: dose 2-30 µM, time 25.0 hrs
[3] = tested on: RAW264.7; test: Antiinflammatory activity in LPS-induced mouse RAW264.7 cells assessed as reduction in iNOS protien level at 10 uM preincubated for 1 hr followed by LPS stimulation and measured after 24 hrs […]; assay type: functional, cell-based; settings: time 25.0 hrs
[4] = tested on: RAW264.7; test: Antiinflammatory activity in LPS-induced mouse RAW264.7 cells assessed as downregulation of IL-6 secretion preincubated for 1 hr followed by LPS stimulation and measured after 24 hrs by ELISA method; assay type: functional, cell-based; settings: dose 2-30 µM, time 25.0 hrs
[5] = tested on: RAW264.7; test: Antiinflammatory activity in LPS-induced mouse RAW264.7 cells assessed as downregulation of TNF-alpha secretion preincubated for 1 hr followed by LPS stimulation and measured after 3 hrs by ELISA method; assay type: functional, cell-based; settings: dose 2-30 µM, time 4.0 hrs
[6] = tested on: RAW264.7; test: Antiinflammatory activity in LPS-induced mouse RAW264.7 cells assessed as downregulation of IL-1 beta secretion preincubated for 1 hr followed by LPS stimulation and measured after 24 hrs by ELISA method; assay type: functional, cell-based; settings: dose 2-30 µM, time 25.0 hrs
[7] = tested on: RAW264.7; test: Antiinflammatory activity in LPS-induced mouse RAW264.7 cells assessed as suppression of PGE2 secretion at 2 to 30 uM preincubated for 1 hr followed by LPS stimulation and measured after 24 hrs by ELISA method; assay type: functional, cell-based; settings: dose 2-30 µM, time 25.0 hrs
[8] = tested on: RAW264.7; test: Inhibition of LPS-induced NFkappaB activation in mouse RAW264.7 cells assessed as reduction in NF-kappaB phosphorylation level preincubated for 1 hr followed by LPS stimulation and measured after 30 mins by Westernblot analysis; assay type: cell-based; settings: dose 10-30 µM, time 1.5 hrs
[9] = tested on: RAW264.7; test: Inhibition of LPS-induced NFkappaB activation in mouse RAW264.7 cells assessed as inhibition of IKKalpha phosphorylation level preincubated for 1 hr followed by LPS stimulation and measured after 30 mins by Westernblot analysis; assay type: cell-based; settings: dose 10-30 µM, time 1.5 hrs
[10] = tested on: RAW264.7; test: Inhibition of LPS-induced NFkappaB activation in mouse RAW264.7 cells assessed as inhibition of IkappaBalpha phosphorylation level preincubated for 1 hr followed by LPS stimulation and measured after 30 mins by Westernblot analysis; assay type: cell-based; settings: dose 10-30 µM, time 1.5 hrs
[11] = tested on: RAW264.7; test: Inhibition of MAPK signalling pathway in LPS induced mouse RAW264.7 cells assessed as effect on ERK phosphorylation level at 10 to 30 uM preincubated for 1 hr followed by LPS stimulation and measured after 30 mins by Westernblot analysis; assay type: cell-based; settings: dose 10-30 µM, time 1.5 hrs
[12] = tested on: RAW264.7; test: Inhibition of MAPK signalling pathway in LPS induced mouse RAW264.7 cells assessed as effect on p38 phosphorylation level at 10 to 30 uM preincubated for 1 hr followed by LPS stimulation and measured after 30 mins by Westernblot analysis; assay type: cell-based; settings: dose 10-30 µM, time 1.5 hrs
[13] = tested on: RAW264.7; test: Inhibition of MAPK signalling pathway in LPS induced mouse RAW264.7 cells assessed as effect on JNK phosphorylation level at 10 to 30 uM preincubated for 1 hr followed by LPS stimulation and measured after 30 mins by Westernblot analysis; assay type: cell-based; settings: dose 10-30 µM, time 1.5 hrs
[14] = tested on: RAW264.7; test: Cytotoxicity activity mouse RAW264.7 cells assessed as reduction in cell viability at 10 uM incubated for 48 hrs by MTT assay; assay type: toxicity, cell-based; settings: raw264.7, 48 h
[15] = target: NACHT, LRR and PYD domains-containing protein 3 (Mus musculus) (UniProt Q8R4B8); test: Inhibition of NLRP3 inflammasome in LPS-induced mouse RAW264.7 cells assessed as reduction in NLRP3 activation at 10 to 30 uM primed with LPS for 4.5 hs followed by incubation with compound for 1 hr and later stimulation with ATP for 30 mins by Western blot analysis; assay type: cell-based; settings: dose 10-30 µM, time 1.5 hrs
Chain of NACHT, LRR and PYD domains-containing protein 3 (Mus musculus) (Q8R4B8 whole entry, the tested form may be a part): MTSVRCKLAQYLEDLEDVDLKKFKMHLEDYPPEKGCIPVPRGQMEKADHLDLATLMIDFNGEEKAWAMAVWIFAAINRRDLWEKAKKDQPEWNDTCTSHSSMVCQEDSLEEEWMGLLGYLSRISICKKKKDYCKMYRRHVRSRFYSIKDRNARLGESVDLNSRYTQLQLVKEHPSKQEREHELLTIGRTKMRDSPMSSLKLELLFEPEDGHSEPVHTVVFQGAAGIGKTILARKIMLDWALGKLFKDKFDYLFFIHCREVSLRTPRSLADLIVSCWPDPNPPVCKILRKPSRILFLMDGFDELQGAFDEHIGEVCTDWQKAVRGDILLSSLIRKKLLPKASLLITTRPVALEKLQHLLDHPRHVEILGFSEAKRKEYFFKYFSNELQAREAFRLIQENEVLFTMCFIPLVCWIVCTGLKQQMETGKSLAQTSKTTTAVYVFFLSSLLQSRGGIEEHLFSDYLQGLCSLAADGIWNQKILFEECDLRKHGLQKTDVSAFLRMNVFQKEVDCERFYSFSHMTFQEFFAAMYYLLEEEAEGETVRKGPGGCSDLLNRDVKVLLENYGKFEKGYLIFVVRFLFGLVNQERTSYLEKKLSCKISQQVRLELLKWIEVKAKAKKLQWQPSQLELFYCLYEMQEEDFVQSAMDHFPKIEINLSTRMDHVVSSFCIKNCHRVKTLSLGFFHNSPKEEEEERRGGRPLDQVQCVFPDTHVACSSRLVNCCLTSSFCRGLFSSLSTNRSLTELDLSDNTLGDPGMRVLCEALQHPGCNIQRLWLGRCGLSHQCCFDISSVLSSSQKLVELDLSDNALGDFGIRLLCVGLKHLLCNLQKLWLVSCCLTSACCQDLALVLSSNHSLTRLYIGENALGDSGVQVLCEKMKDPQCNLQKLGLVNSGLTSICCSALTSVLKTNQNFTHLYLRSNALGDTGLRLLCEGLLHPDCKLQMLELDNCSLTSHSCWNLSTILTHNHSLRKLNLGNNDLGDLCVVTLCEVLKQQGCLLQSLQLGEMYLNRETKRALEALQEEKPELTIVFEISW

[16] = target: NACHT, LRR and PYD domains-containing protein 3 (Mus musculus) (UniProt Q8R4B8); test: Inhibition of NLRP3 inflammasome in LPS-induced mouse RAW264.7 cells assessed as downregulation of caspase-1 activation primed with LPS for 4.5 hs followed by incubation with compound for 1 hr and later stimulation with ATP for 30 mins by Western blot analysis; assay type: cell-based; settings: dose 10-30 µM, time 1.5 hrs
[17] = target: NACHT, LRR and PYD domains-containing protein 3 (Mus musculus) (UniProt Q8R4B8); test: Inhibition of NLRP3 inflammasome in LPS-induced mouse RAW264.7 cells assessed as inhibition of ASC expression at 10 to 30 uM primed with LPS for 4.5 hs followed by incubation with compound for 1 hr and later stimulation with ATP for 30 mins by Western blot analysis; assay type: cell-based; settings: dose 10-30 µM, time 1.5 hrs
[18] = tested on: Mus musculus; test: Antiinflammatory activity against DSS-induced ulcerative colitis BALB/c mouse assessed as attenuation of colonic length reduction at 0.25 mg/kg, po for 5 days and measured after 12 days; assay type: functional, organism-based; settings: time 12.0 day
[19] = tested on: Mus musculus; test: Antiinflammatory activity against DSS-induced ulcerative colitis BALB/c mouse assessed as amelioration of leucocyte infiltration at 0.25 mg/kg, po for 5 days and measured after 12 days; assay type: functional, organism-based; settings: time 12.0 day
[20] = tested on: Mus musculus; test: Antiinflammatory activity against DSS-induced ulcerative colitis BALB/c mouse assessed as amelioration of inflammatory cell infiltration at 0.25 mg/kg, po for 5 days and measured after 12 days; assay type: functional, organism-based; settings: time 12.0 day
[21] = tested on: Mus musculus; test: Antiinflammatory activity against DSS-induced ulcerative colitis BALB/c mouse assessed as amelioration of goblet cell depletion at 0.25 mg/kg, po for 5 days and measured after 12 days; assay type: functional, organism-based; settings: time 12.0 day
[22] = tested on: Mus musculus; test: Antiinflammatory activity against DSS-induced ulcerative colitis BALB/c mouse assessed as amelioration of atrophied blood sinusoids at 0.25 mg/kg, po for 5 days and measured after 12 days; assay type: functional, organism-based; settings: time 12.0 day
[23] = tested on: Mus musculus; test: Antiinflammatory activity against DSS-induced ulcerative colitis BALB/c mouse assessed as amelioration of crypt architecture loss at 0.25 mg/kg, po for 5 days and measured after 12 days; assay type: functional, organism-based; settings: time 12.0 day
[24] = tested on: Mus musculus; test: Protection against DSS-induced ulcerative colitis BALB/c mouse assessed as recovery of blood sinusoids at 0.25 mg/kg, po for 5 days and measured after 12 days by H and E staining based analysis; assay type: functional, organism-based; settings: time 12.0 day
[25] = tested on: Mus musculus; test: Protection against DSS-induced ulcerative colitis BALB/c mouse assessed as recovery of cell matrix development at 0.25 mg/kg, po for 5 days and measured after 12 days by H and E staining based analysis; assay type: functional, organism-based; settings: time 12.0 day

Q: Which Activity [1] does the source give for `COc1ccccc1C1=Nn2c(Cc3ccccc3Nc3c(Cl)cccc3Cl)nnc2SC1` here?
A: Its Activity is “Dose-Dependent Effect”.

Q: What about the Activity [2] of the same compound?
A: The Activity was “Dose-Dependent Effect”.

Q: And the Activity [3]?
A: The Activity was “Active”.

Q: And the Activity [4]?
A: Its Activity is “Dose-Dependent Effect”.

Q: What about the Activity [5] of the same compound?
A: Its Activity is “Dose-Dependent Effect”.

Q: And the Activity [6]?
A: Its Activity is “Dose-Dependent Effect”.

Q: And the Activity [7]?
A: Its Activity is “Active”.

Q: And the inhibition [8]?
A: The inhibition was “Dose-Dependent Effect”.

Q: And the inhibition [9]?
A: The inhibition was “Dose-Dependent Effect”.

Q: What about the inhibition [10] of the same compound?
A: Its inhibition is “Dose-Dependent Effect”.

Q: And the inhibition [11]?
A: The inhibition was “inactive”.

Q: And the inhibition [12]?
A: Its inhibition is “inactive”.

Q: What about the inhibition [13] of the same compound?
A: Its inhibition is “inactive”.

Q: And the Activity [14]?
A: The Activity was “Non-Toxic”.

Q: What about the inhibition [15] of the same compound?
A: Its inhibition is “Active”.

Q: And the inhibition [16]?
A: The inhibition was “Dose-Dependent Effect”.

Q: What about the inhibition [17] of the same compound?
A: Its inhibition is “Active”.

Q: What about the Activity [18] of the same compound?
A: Its Activity is “Active”.

Q: And the Activity [19]?
A: Its Activity is “Active”.

Q: And the Activity [20]?
A: The Activity was “Active”.

Q: What about the Activity [21] of the same compound?
A: Its Activity is “Active”.

Q: What about the Activity [22] of the same compound?
A: The Activity was “Active”.

Q: And the Activity [23]?
A: Its Activity is “Active”.

Q: And the Activity [24]?
A: Its Activity is “Active”.

Q: And the Activity [25]?
A: The Activity was “Active”.
